Assay results from US20240358692A1, “TREATMENT OF SCLERODERMA” (Aisa Pharma, Inc., priority 2023, published 2024).

What was measured:
[1] = cilnidipine given orally; cited from earlier work
participants with SSc-RP = experiment: Average duration of weekly RP attacks (minutes), patient diary; assay type: in vivo, human; details: for Average Duration of Weekly RP Attacks (All Attacks), Mean / Average Duration of Weekly RP Attacks (All Attacks), Median: first subgroup of table
Text: The absolute change in average duration of weekly RP attacks from baseline to the end of each dosing period was and will be a secondary outcome variable. The sponsor-developed participant-informed diary was and will be used to record data. Average duration of weekly RP attacks is defined as the total duration of RP attacks divided by total number of RP attacks within the last 7 days of each dosing period. Total duration of RP attacks during the last 7 days of screening period divided by the total number of RP attacks will be used as baseline for the analysis of all periods. The variable will be calculated similar to frequency data as before.

[2] = Cilnidipine 10 mg, Excluding Outliers, ITT Population - Part A
[3] = Cilnidipine 10 mg, Excluding Outliers, by Baseline RCS, first RCS subgroup of table (not named), ITT Population - Part A
[4] = Cilnidipine 10 mg, by Baseline RCS, first RCS subgroup of table (not named), ITT Population - Part A
[5] = Cilnidipine 10 mg, by Baseline RCS, ITT Population - Part A
[6] = Cilnidipine 20 mg, Excluding Outliers, ITT Population - Part A
[7] = Cilnidipine 20 mg, Excluding Outliers, by Baseline RCS, first RCS subgroup of table (not named), ITT Population - Part A
[8] = Cilnidipine 20 mg, by Baseline RCS, first RCS subgroup of table (not named), ITT Population - Part A
[9] = Cilnidipine 20 mg, by Baseline RCS, ITT Population - Part A
[10] = Pooled Cilnidipine 10 mg and Cilnidipine 10 mg + Tadalafil 5 mg, Excluding Outliers, ITT Population - Part A

COCCOC(=O)C1=C(C)NC(C)=C(C(=O)OC/C=C/c2ccccc2)C1c1cccc([N+](=O)[O-])c1 (stereo not drawn) [Cilnidipine]
protein bound [1]: 98% | Average Duration of Weekly RP Attacks (All Attacks), Change from Baseline, Mean (participants with SSc-RP; [2]): -8.48 min | Average Duration of Weekly RP Attacks (All Attacks), Percent Change from Baseline, Mean (participants with SSc-RP; [2]): −21.20% | Average Duration of weekly symptomatic RP attacks, Mean (participants with SSc-RP; [2]): 31.64 min | Average Duration of weekly symptomatic RP attacks, Median (participants with SSc-RP; [2]): 31.64 min | Percent Change from Baseline in average duration of weekly symptomatic RP attacks, Median (participants with SSc-RP; [2]): −34.60% | Average Duration of weekly symptomatic RP attacks, Mean (participants with SSc-RP; [3]): 31.64 min | Average Duration of weekly symptomatic RP attacks, Median (participants with SSc-RP; [3]): 31.64 min | Change from Baseline in average duration of weekly symptomatic RP attacks, Mean (participants with SSc-RP; [3]): -16.74 min | Change from Baseline in average duration of weekly symptomatic RP attacks, Median (participants with SSc-RP; [3]): -16.74 min | Percent Change from Baseline in average duration of weekly symptomatic RP attacks, Mean (participants with SSc-RP; [3]): −34.60% | Percent Change from Baseline in average duration of weekly symptomatic RP attacks, Median (participants with SSc-RP; [3]): −34.60% | Average Duration of Weekly Symptomatic RP Attacks Change from Baseline, Mean (participants with SSc-RP; Cilnidipine 10 mg, ITT Part A): -16.74 min | Average Duration of Weekly Symptomatic RP Attacks Change from Baseline, Median (participants with SSc-RP; Cilnidipine 10 mg, ITT Part A): -16.74 min | Average Duration of Weekly Symptomatic RP Attacks Percent Change from Baseline, Mean (participants with SSc-RP; Cilnidipine 10 mg, ITT Part A): −34.60% | Average Duration of Weekly Symptomatic RP Attacks Percent Change from Baseline, Median (participants with SSc-RP; Cilnidipine 10 mg, ITT Part A): −34.60% | Average Duration of weekly symptomatic RP attacks, Mean (participants with SSc-RP; [4]): 31.64 min | Average Duration of weekly symptomatic RP attacks, Median (participants with SSc-RP; [4]): 31.64 min | Change from Baseline in average duration of weekly symptomatic RP attacks, Mean (participants with SSc-RP; [4]): -16.74 min | Change from Baseline in average duration of weekly symptomatic RP attacks, Median (participants with SSc-RP; [4]): -16.74 min | Percent Change from Baseline in average duration of weekly symptomatic RP attacks, Mean (participants with SSc-RP; [4]): −34.60% | Percent Change from Baseline in average duration of weekly symptomatic RP attacks, Median (participants with SSc-RP; [4]): −34.60% | Average Duration of Weekly RP Attacks (All Attacks), Mean (participants with SSc-RP; [5]): 31.52 min | Average Duration of Weekly RP Attacks (All Attacks), Median (participants with SSc-RP; [5]): 31.52 min | Average Duration of weekly symptomatic RP attacks, Mean (participants with SSc-RP; Cilnidipine 10 mg, last 7 days of dosing period, ITT Part A): 31.64 min | Duration (change) (participants with SSc-RP; Cilnidipine 20 mg (n = 3)): −20% | Average Duration of Weekly RP Attacks (All Attacks), Change from Baseline, Mean (participants with SSc-RP; [6]): -1.09 min | Average Duration of Weekly RP Attacks (All Attacks), Change from Baseline, Median (participants with SSc-RP; [6]): -1.09 min | Average Duration of Weekly RP Attacks (All Attacks), Percent Change from Baseline, Mean (participants with SSc-RP; [6]): −24.97% | Average Duration of Weekly RP Attacks (All Attacks), Percent Change from Baseline, Median (participants with SSc-RP; [6]): −24.97% | Average Duration of weekly symptomatic RP attacks, Mean (participants with SSc-RP; [6]): 16.73 min | Average Duration of weekly symptomatic RP attacks, Median (participants with SSc-RP; [6]): 16.73 min | Change from Baseline in average duration of weekly symptomatic RP attacks, Mean (participants with SSc-RP; [6]): -3.13 min | Change from Baseline in average duration of weekly symptomatic RP attacks, Median (participants with SSc-RP; [6]): -3.13 min | Percent Change from Baseline in average duration of weekly symptomatic RP attacks, Mean (participants with SSc-RP; [6]): −31.05% | Percent Change from Baseline in average duration of weekly symptomatic RP attacks, Median (participants with SSc-RP; [6]): −31.05% | Average Duration of weekly symptomatic RP attacks, Mean (participants with SSc-RP; [7]): 16.73 min | Average Duration of weekly symptomatic RP attacks, Median (participants with SSc-RP; [7]): 16.73 min | Change from Baseline in average duration of weekly symptomatic RP attacks, Mean (participants with SSc-RP; [7]): -3.13 min | Change from Baseline in average duration of weekly symptomatic RP attacks, Median (participants with SSc-RP; [7]): -3.13 min | Percent Change from Baseline in average duration of weekly symptomatic RP attacks, Mean (participants with SSc-RP; [7]): −31.05% | Percent Change from Baseline in average duration of weekly symptomatic RP attacks, Median (participants with SSc-RP; [7]): −31.05% | Average Duration of Weekly Symptomatic RP Attacks Change from Baseline, Mean (participants with SSc-RP; Cilnidipine 20 mg, ITT Part A): -3.13 min | Average Duration of Weekly Symptomatic RP Attacks Change from Baseline, Median (participants with SSc-RP; Cilnidipine 20 mg, ITT Part A): -3.13 min | Average Duration of Weekly Symptomatic RP Attacks Percent Change from Baseline, Mean (participants with SSc-RP; Cilnidipine 20 mg, ITT Part A): −31.05% | Average Duration of Weekly Symptomatic RP Attacks Percent Change from Baseline, Median (participants with SSc-RP; Cilnidipine 20 mg, ITT Part A): −31.05% | Average Duration of weekly symptomatic RP attacks, Mean (participants with SSc-RP; [8]): 16.73 min | Average Duration of weekly symptomatic RP attacks, Median (participants with SSc-RP; [8]): 16.73 min | Change from Baseline in average duration of weekly symptomatic RP attacks, Mean (participants with SSc-RP; [8]): -3.13 min | Change from Baseline in average duration of weekly symptomatic RP attacks, Median (participants with SSc-RP; [8]): -3.13 min | Percent Change from Baseline in average duration of weekly symptomatic RP attacks, Mean (participants with SSc-RP; [8]): −31.05% | Percent Change from Baseline in average duration of weekly symptomatic RP attacks, Median (participants with SSc-RP; [8]): −31.05% | Average Duration of Weekly RP Attacks (All Attacks), Mean (participants with SSc-RP; [9]): 16.73 min | Average Duration of Weekly RP Attacks (All Attacks), Median (participants with SSc-RP; [9]): 16.73 min | Average Duration of weekly symptomatic RP attacks, Median (participants with SSc-RP; [10]): 31.64 min | Change from Baseline in average duration of weekly symptomatic RP attacks, Mean (participants with SSc-RP; [10]): -12.11 min | Change from Baseline in average duration of weekly symptomatic RP attacks, Median (participants with SSc-RP; [10]): -16.74 min
